Converted amounts (≈) assume the structure as drawn. The source made the active and inactive calls. The calls are words filed in the database; no cut-off is given here.
What was measured:
[1] = Stability of the compound assessed as Klebsiella pneumoniae beta-lactamase IMP-28-mediated degradation by measuring appearance of vinyl protons release measured after 120 mins by NMR spectra; assay type: ADME; settings: 2 h
Enterobacter cloacae [2] = experiment: Inhibition of Metallo-beta-lactamase IMP-1 in Enterobacter cloacae clinical isolate assessed as MIC for meropenem antibacterial activity at 32 ug/ml (Rvb =16 ug/ml); settings: dose 32.0 µg/ml
Enterobacter cloacae [3] = experiment: Inhibition of Metallo-beta-lactamase IMP-1 in Enterobacter cloacae clinical isolate assessed as MIC for meropenem antibacterial activity at 64 ug/ml (Rvb =16 ug/ml); settings: dose 64.0 µg/ml
Enterobacter cloacae [4] = experiment: Inhibition of Metallo-beta-lactamase IMP-1 in Enterobacter cloacae clinical isolate assessed as MIC for meropenem antibacterial activity at 128 ug/ml (Rvb =16 ug/ml); settings: dose 128.0 µg/ml
Escherichia coli [5] = experiment: Inhibition of Metallo-beta-lactamase NDM-1 in Escherichia coli clinical isolate assessed as MIC for meropenem antibacterial activity at 32 ug/ml (reference value: 32 ug/ml); settings: dose 32.0 µg/ml
Escherichia coli [6] = experiment: Inhibition of Metallo-beta-lactamase NDM-1 in Escherichia coli clinical isolate assessed as MIC for meropenem antibacterial activity at 64 ug/ml (reference value: 32 ug/ml); settings: dose 64.0 µg/ml
Escherichia coli [7] = experiment: Inhibition of Metallo-beta-lactamase NDM-1 in Escherichia coli clinical isolate assessed as MIC for meropenem antibacterial activity at 128 ug/ml (reference value: 32 ug/ml); settings: dose 128.0 µg/ml
Klebsiella pneumoniae [8] = experiment: Inhibition of Metallo-beta-lactamase IMP-28 in Klebsiella pneumoniae clinical isolate assessed as MIC for meropenem antibacterial activity at 32 ug/ml (reference value: 2 ug/ml); settings: dose 32.0 µg/ml
Klebsiella pneumoniae [9] = experiment: Inhibition of Metallo-beta-lactamase IMP-28 in Klebsiella pneumoniae clinical isolate assessed as MIC for meropenem antibacterial activity at 64 ug/ml (reference value: 2 ug/ml); settings: dose 64.0 µg/ml
Klebsiella pneumoniae [10] = experiment: Inhibition of Metallo-beta-lactamase IMP-28 in Klebsiella pneumoniae clinical isolate assessed as MIC for meropenem antibacterial activity at 128 ug/ml (reference value: 2 ug/ml); settings: dose 128.0 µg/ml
Escherichia coli [11] = experiment: Inhibition of Metallo-beta-lactamase VIM-2 in Escherichia coli clinical isolate assessed as MIC for meropenem antibacterial activity at 32 ug/ml (reference value: 4 ug/ml); settings: dose 32.0 µg/ml
Escherichia coli [12] = experiment: Inhibition of Metallo-beta-lactamase VIM-2 in Escherichia coli clinical isolate assessed as MIC for meropenem antibacterial activity at 64 ug/ml (reference value: 4 ug/ml); settings: dose 64.0 µg/ml
Escherichia coli [13] = experiment: Inhibition of Metallo-beta-lactamase VIM-2 in Escherichia coli clinical isolate assessed as MIC for meropenem antibacterial activity at 128 ug/ml (reference value: 4 ug/ml); settings: dose 128.0 µg/ml
Enterobacter cloacae [14] = experiment: Antibacterial activity against beta-lactamase IMP1 producing Enterobacter cloacae clinical isolate measured upto 128 ug/ml; assay type: functional, organism-based
Klebsiella pneumoniae [15] = experiment: Antibacterial activity against beta-lactamase IMP-28 producing Klebsiella pneumoniae clinical isolate measured upto 128 ug/ml; assay type: functional, organism-based
Escherichia coli [16] = experiment: Antibacterial activity against beta-lactamase VIM2 producing Escherichia coli clinical isolate measured upto 128 ug/ml; assay type: functional, organism-based
[17] = Inhibition of Enterobacter cloacae IMP-1 using nitrocefin chromogenic substrate measured after 15 to 60 min at 25 degC by microplate reader
[18] = Inhibition of Klebsiella pneumoniae beta-lactamase IMP-28 using nitrocefin chromogenic substrate measured after 15 to 60 min at 25 degC by microplate reader
[19] = Inhibition of Escherichia coli beta-lactamase NDM-1 using nitrocefin chromogenic substrate measured after 15 to 60 min at 25 degC by microplate reader
[20] = Inhibition of Escherichia coli beta-lactamase VIM-2 using nitrocefin chromogenic substrate measured after 15 to 60 min at 25 degC by microplate reader
Klebsiella pneumoniae [21] = experiment: Substrate activity at Klebsiella pneumoniae beta-lactamase IMP-28 assessed as compound hydrolysis by measuring Km by Michaelis-Menten analysis
Klebsiella pneumoniae [22] = experiment: Substrate activity at Klebsiella pneumoniae beta-lactamase IMP-28 assessed as compound hydrolysis by measuring Kcat by Michaelis-Menten analysis
Klebsiella pneumoniae [23] = experiment: Substrate activity at Klebsiella pneumoniae beta-lactamase IMP-28 assessed as compound hydrolysis by measuring Kcat/Km by Michaelis-Menten analysis
Enterobacter cloacae [24] = experiment: Inhibition of Metallo-beta-lactamase IMP-1 in Enterobacter cloacae clinical isolate assessed as fold reduction in meropenem MIC at 32 ug/ml; settings: dose 32.0 µg/ml
Enterobacter cloacae [25] = experiment: Inhibition of Metallo-beta-lactamase IMP-1 in Enterobacter cloacae clinical isolate assessed as fold reduction in meropenem MIC at 64 ug/ml; settings: dose 64.0 µg/ml
Enterobacter cloacae [26] = experiment: Inhibition of Metallo-beta-lactamase IMP-1 in Enterobacter cloacae clinical isolate assessed as fold reduction in meropenem MIC at 128 ug/ml; settings: dose 128.0 µg/ml
Klebsiella pneumoniae [27] = experiment: Inhibition of Metallo-beta-lactamase IMP-28 in Klebsiella pneumoniae clinical isolate assessed as fold reduction in meropenem MIC at 32 ug/ml; settings: dose 32.0 µg/ml
Klebsiella pneumoniae [28] = experiment: Inhibition of Metallo-beta-lactamase IMP-28 in Klebsiella pneumoniae clinical isolate assessed as fold reduction in meropenem MIC at 64 ug/ml; settings: dose 64.0 µg/ml
Klebsiella pneumoniae [29] = experiment: Inhibition of Metallo-beta-lactamase IMP-28 in Klebsiella pneumoniae clinical isolate assessed as fold reduction in meropenem MIC at 128 ug/ml; settings: dose 128.0 µg/ml
Escherichia coli [30] = experiment: Inhibition of Metallo-beta-lactamase VIM-2 in Escherichia coli clinical isolate assessed as fold reduction in meropenem MIC at 32 ug/ml; settings: dose 32.0 µg/ml
Escherichia coli [31] = experiment: Inhibition of Metallo-beta-lactamase VIM-2 in Escherichia coli clinical isolate assessed as fold reduction in meropenem MIC at 64 ug/ml; settings: dose 64.0 µg/ml
Escherichia coli [32] = experiment: Inhibition of Metallo-beta-lactamase VIM-2 in Escherichia coli clinical isolate assessed as fold reduction in meropenem MIC at 128 ug/ml; settings: dose 128.0 µg/ml
Escherichia coli [33] = experiment: Inhibition of Metallo-beta-lactamase NDM-1 in Escherichia coli clinical isolate assessed as fold reduction in meropenem MIC at 32 ug/ml; settings: dose 32.0 µg/ml
Escherichia coli [34] = experiment: Inhibition of Metallo-beta-lactamase NDM-1 in Escherichia coli clinical isolate assessed as fold reduction in meropenem MIC at 64 ug/ml; settings: dose 64.0 µg/ml
Escherichia coli [35] = experiment: Inhibition of Metallo-beta-lactamase NDM-1 in Escherichia coli clinical isolate assessed as fold reduction in meropenem MIC at 128 ug/ml; settings: dose 128.0 µg/ml
Escherichia coli [36] = experiment: Antibacterial activity against beta-lactamase NDM1 producing Escherichia coli clinical isolate measured upto 128 ug/ml; assay type: functional, organism-based
Enterobacter cloacae [37] = experiment: Inhibition of Metallo-beta-lactamase IMP-1 in Enterobacter cloacae clinical isolate assessed as MIC for meropenem antibacterial activity at 32 ug/ml (reference value: 32 ug/ml); settings: dose 32.0 µg/ml
Enterobacter cloacae [38] = experiment: Inhibition of Metallo-beta-lactamase IMP-1 in Enterobacter cloacae clinical isolate assessed as MIC for meropenem antibacterial activity at 64 ug/ml (reference value: 32 ug/ml); settings: dose 64.0 µg/ml
Enterobacter cloacae [39] = experiment: Inhibition of Metallo-beta-lactamase IMP-1 in Enterobacter cloacae clinical isolate assessed as MIC for meropenem antibacterial activity at 128 ug/ml (reference value: 32 ug/ml); settings: dose 128.0 µg/ml

CC(=O)OCC1=C(C(=O)O)N2C(=O)[C@@H](NC(=O)Cc3ccccc3)[C@H]2SC1 [CEFALORAM]
Stability [1]: Unstable

O=C(O)CSCC1=C(C(=O)O)N2C(=O)[C@@H](NC(=O)Cc3ccccc3)[C@H]2SC1
MIC (Enterobacter cloacae [2]): 8 µg/mL (≈ 18.9 µM) | MIC (Enterobacter cloacae [3]): 8 µg/mL (≈ 18.9 µM) | MIC (Enterobacter cloacae [4]): 4 µg/mL (≈ 9.47 µM) | MIC (Escherichia coli [5]): 16 µg/mL (≈ 37.9 µM) | MIC (Escherichia coli [6]): 16 µg/mL (≈ 37.9 µM) | MIC (Escherichia coli [7]): 8 µg/mL (≈ 18.9 µM) | MIC (Klebsiella pneumoniae [8]): 0.25 µg/mL (≈ 0.592 µM) | MIC (Klebsiella pneumoniae [9]): 0.25 µg/mL (≈ 0.592 µM) | MIC (Klebsiella pneumoniae [10]): 0.125 µg/mL (≈ 0.296 µM) | MIC (Escherichia coli [11]): 2 µg/mL (≈ 4.73 µM) | MIC (Escherichia coli [12]): 2 µg/mL (≈ 4.73 µM) | MIC (Escherichia coli [13]): 1 µg/mL (≈ 2.37 µM) | Activity (Enterobacter cloacae [14]): inactive | Activity (Klebsiella pneumoniae [15]): inactive | Activity (Escherichia coli [16]): inactive | IC50 [17]: > 100 µM | IC50 [18]: > 100 µM | IC50 [19]: 72 µM | IC50 [20]: 53 µM | Km (Klebsiella pneumoniae [21]): 219 µM | kcat (Klebsiella pneumoniae [22]): 37 s⁻¹ | kcat/Km (Klebsiella pneumoniae [23]): 169000 M⁻¹ s⁻¹ | fold change (FC) (Enterobacter cloacae [24]): 2 | fold change (FC) (Enterobacter cloacae [25]): 2 | fold change (FC) (Enterobacter cloacae [26]): 4 | fold change (FC) (Klebsiella pneumoniae [27]): 8 | fold change (FC) (Klebsiella pneumoniae [28]): 8 | fold change (FC) (Klebsiella pneumoniae [29]): 16 | fold change (FC) (Escherichia coli [30]): 2 | fold change (FC) (Escherichia coli [31]): 2 | fold change (FC) (Escherichia coli [32]): 4 | fold change (FC) (Escherichia coli [33]): 2 | fold change (FC) (Escherichia coli [34]): 2 | fold change (FC) (Escherichia coli [35]): 4 | Activity (Escherichia coli [36]): inactive

O=C(Cc1ccccc1)N[C@@H]1C(=O)N2C(C(=O)O)=C(CSCc3ccccc3)CS[C@H]12
MIC (Escherichia coli [5]): 16 µg/mL (≈ 35.2 µM) | MIC (Escherichia coli [6]): 16 µg/mL (≈ 35.2 µM) | MIC (Escherichia coli [7]): 16 µg/mL (≈ 35.2 µM) | MIC (Enterobacter cloacae [37]): 8 µg/mL (≈ 17.6 µM) | MIC (Enterobacter cloacae [38]): 8 µg/mL (≈ 17.6 µM) | MIC (Enterobacter cloacae [39]): 4 µg/mL (≈ 8.8 µM) | MIC (Klebsiella pneumoniae [8]): 0.5 µg/mL (≈ 1.1 µM) | MIC (Klebsiella pneumoniae [9]): 0.25 µg/mL (≈ 0.55 µM) | MIC (Klebsiella pneumoniae [10]): 0.25 µg/mL (≈ 0.55 µM) | MIC (Escherichia coli [11]): 2 µg/mL (≈ 4.4 µM) | MIC (Escherichia coli [12]): 2 µg/mL (≈ 4.4 µM) | MIC (Escherichia coli [13]): 1 µg/mL (≈ 2.2 µM) | Activity (Enterobacter cloacae [14]): inactive | Activity (Klebsiella pneumoniae [15]): inactive | Activity (Escherichia coli [16]): inactive | IC50 [17]: 43 µM | IC50 [18]: 45 µM | IC50 [20]: 73 µM | Km (Klebsiella pneumoniae [21]): 20.5 µM | kcat (Klebsiella pneumoniae [22]): 10.8 s⁻¹ | kcat/Km (Klebsiella pneumoniae [23]): 529000 M⁻¹ s⁻¹ | fold change (FC) (Enterobacter cloacae [24]): 4 | fold change (FC) (Enterobacter cloacae [25]): 4 | fold change (FC) (Enterobacter cloacae [26]): 8 | fold change (FC) (Klebsiella pneumoniae [27]): 4 | fold change (FC) (Klebsiella pneumoniae [28]): 8 | fold change (FC) (Klebsiella pneumoniae [29]): 8 | fold change (FC) (Escherichia coli [30]): 2 | fold change (FC) (Escherichia coli [31]): 2 | fold change (FC) (Escherichia coli [32]): 4 | fold change (FC) (Escherichia coli [33]): 2 | fold change (FC) (Escherichia coli [34]): 2 | fold change (FC) (Escherichia coli [35]): 2 | Activity (Escherichia coli [36]): inactive

From ChEMBL document CHEMBL5034010, “Novel Cephalosporin Conjugates Display Potent and Selective Inhibition of Imipenemase-Type Metallo-β-Lactamases” (J Med Chem, 2021)
